Results on 3 compounds are retold here after patent US9987296B2, “Compositions including anthocyanin or anthocyanidin for the prevention or treatment of Articular cartilage-associated conditions” (priority 2008, dated 2018).

In series [1] the test system is human cartilage explants. Nature of the series: Cartilage breakdown as determined by GAG release in human cartilage explants. Format: cell-based. The note with it: for GAG release under basal conditions: high dose (50 ug/mL) alone, no IL-1; for IL-1 induced GAG release (chondroprotection): human cartilage explants, IL-1 plus test agent 5 or 50 ug/mL, 72 hours. From the text: Human osteoarthritic cartilage samples were procured through the Tissue Procurement Facility of the University Hospitals of Cleveland/Case Western Reserve University and with prior approval of the IRB of University Hospitals of Cleveland. The cartilage samples were obtained from patients undergoing total anthroplasty of the knee due to degenerative joint diseases. In all cases care was taken to use only “macroscopically normal” cartilage samples. No samples were exposed to radiation solely for the purpose of these studies but almost all patients will have received X-rays as part of their clinical presentation during the execution of care. The same donor tissue was not used in all experiments but untreated controls were included in all protocols.
(§1) Full thickness cartilage slices (20-25 mg) were dissected from the cartilage using a sterile scalpel blade. Four to five cartilage pieces that were approximately equal in size and weight were transferred to each well of a 24-well, flat bottom plate (Nuns, Denmark) containing DMEM:F12 (1:1) supplemented with antibiotics and 10% FCS and cultured for 24 hours. Subsequently the cartilage explants were cultured overnight in serum free media. The cartilage explants were treated with IL-β alone or with IL-β positive test agents for 72 hours in serum free media. Explants cultured in the absence of IL-β or test agents were used as controls. Additionally, the actions of kuromanin or cyanidin chloride were examined independently of IL-β exposure (5 ng/mL). Where appropriate, explants were exposed to test agents 15 minutes prior to the treatment with IL-β. Total glycosaminoglycan present in the culture supernatant was estimated as described below.
At the end of culture period, the culture medium was collected from each group. A 50 uL aliquot of collected supernatant from each sample was utilized to estimate the total glycosaminoglycan (GAG) concentration by a colorimetric method employing a DMMB as previously described (Miller M J S et al., BMC Complementary and Alternative Med 2006 6; 13). Color intensity was read spectrophotometrically at 535 nm using the Lambda 25 spectrophotometer (Perkin-Elmer, CT) and the values were derived from a standard curve prepared using different concentrations of chondroitin sulfate. Results are expressed as micrograms of glycosaminoglycan released per mg of cartilage tissue.

Series [2] has as its system IGF-1. Nature of the series: IGF-1 production by ELISA, cultured human chondrocytes. Format: cell-based. The note with it: for IGF-1 production: cultured chondrocytes treated with compound, presence and absence of IL-1; for IGF-1 production compared to IL-1 alone: human chondrocytes in culture, 5 or 50 ug/mL (FIGS. 5, 6). As for the experimental part: Chondrocytes were prepared by the enzymatic digestion of knee cartilage, as previously described. (Ahmed S et al., J Nutr 2005 135:20962102). Chondrocytes were plated (1×10^6 cells/mL) in 35 mm culture dishes (BD, Mountain View, Calif.) and cultured in DMEM:F12 (Mediatech, Herndon, Va.) supplemented with 10% FCS and 1% Penn:Strep for 72 hrs at 37° C. and 5% CO2 in a tissue culture incubator. Chondrocytes were serum starved overnight and then exposed to either kuromanin or cyanidin chloride (5 or 50 ug/mL), progrado (2 or 10 ug/mL) alone or in combination in fresh serum-free medium for 1 hr prior to the addition of IL-β.
(§2) Human IGF-1 label in chondrocytes culture or cartilage explant media was quantified using a commercially available Human IGF-1 ELISA kit (R& D Systems) per manufacturer's directions.

Series [3] relates to IGF-1. Nature of the series: IGF-1 production by ELISA, human cartilage explants. Format: cell-based. The note with it: for IGF-1 production compared to IL-1 alone: human cartilage explants, 5 or 50 ug/mL (FIGS. 7, 8). How it is done: as §1, §2
(In general: In an ELISA, binding on a coated surface is turned into a signal by an enzyme label.)

Series [4] deals with Human articular chondrocytes. Description: Cell viability (calcein AM / ethidium homodimer staining). It counts as cell-based. The note with it: 96 hours. The source says: Chondrocytes were isolated from non-arthritic regions of adult human articular cartilage (N=3 donors) and expanded in tissue culture flasks in DMEM supplemented with 10% calf serum.
At higher concentrations, the color of the anthocyanin interfered with the spectrophotometer reading; therefore, cell viability was additionally measured with calcein staining as follows: Live and dead cells were simultaneously viewed in situ with a confocal microscope (LSM 510; Zeiss, Wetzlar, Germany), using a fluorescent double stain. Calcein AM (1 uM; Invitrogen, Carlsbad, Calif.), a fluorescein derivative that is metabolized by nonspecific esterase present in viable cells, was used to stain live cells. The use of 8 uM ethidium homodimer (Invitrogen), a nucleic acid stain that is excluded by intact cell membranes, enabled visualization of the nuclei of dead cells. After 96-hour exposure to the appropriate concentration of anthocyanins, chondrocytes were cultured in DMEM supplemented with Calcein AM and ethidium homodimer for 45 minutes. Live and dead cells were counted using an automated image analysis script written in Matlab (MathWorks, Natick, Mass.) to measure percentage cell viability.

For series [5], the system named is bovine cartilage explants. Nature of the series: Matrix synthesis (35S uptake) in bovine cartilage explants. Format: cell-based.
Series [6] has as its system bovine cartilage explants. Nature of the series: Mucopolysaccharide production (35 Sulfur uptake) in bovine cartilage explants. Format: cell-based. How it is done:
Bovine cartilage explants were placed in culture including 10% FCS and Vitamin C. IL-1 was added to a test population and IL-1 was not added to control. Explants were cultured for 24 hours. Kuromanin chloride was then added to each culture. Mucopolysaccharides were measured using radioactive 35 Sulfur uptake.

Series [7] has as its system bovine chondrocytes. Nature of the series: Matrix synthesis rate (35S) of bovine chondrocytes in alginate beads. It counts as cell-based. The note with it: 100 uM with TGF-β 10 ng/mL, 24 hours.
Experimental: Chondrocytes were isolated from weight-bearing regions of young (18-30 months old) bovine femoral condyles. Primary cells were obtained from 3 different animals and suspended in beads of 2% alginate. The alginate beads were precultured in DMEM supplemented with 10% calf serum for 48 hours. Before the experiments, the chondrocytes were serum-starved overnight with 0.1% serum to reduce the effect of serum and to reduce anabolic activity to baseline.
For each treatment condition, 10 millicuries of ^35S was added to each well and incubated for the appropriate duration. At the appropriate harvest time point, each well was then washed extensively with PBS (5-6 times with 500 uL, of PBS), before trypsin and EDTA was added to dissolve alginate. After 20-30 minutes, the dissolved gels and released cells were transferred into 1.5 ml Eppendorf tubes with 150 uL, of calf serum (to promote pellet formation) and the cells were centrifuged at 2000 rpm for 5 minutes. The supernatant was removed via pipette without disturbing the cell pellet. The remaining cell and supernatant (approximately 300 ul) was then mixed with 500 uL of PBS and transferred to scintillation vials, to which 5 ml of scintillation fluid was dispensed. Each scintillation vial was capped, thoroughly vortexed and then placed in a gamma counter to measure gamma radiation emission for each sample. Each sample was measured for 5 minutes.
The conditions of series [8]: cited from earlier work.
For series [9] the following is noted: in vitro; cited from earlier work.
Series [10] relates to rodent pancreatic beta-cells. The note with it: in culture, with 4 and 10 mM glucose; cited from earlier work.
Series [11] concerns TGF-β. Nature of the series: TGF-β by ELISA after exposure of fibroblast cells to dextrose. It counts as cell-based. As to conditions: fibroblasts. How it is done: (§3) For completeness, the relationship between a saccharide (dextrose) and TGF-β was also examined. Fibroblasts were treated with varying amounts of dextrose and measured for the release of TGF-β. […] It appeared that 0.5% glucose provided the greatest proliferation of fibroblasts.

Series [12] concerns fibroblast cells. Nature of the series: Fibroblast cell proliferation. It counts as cell-based. As to conditions: for cell proliferation: fibroblasts. As for the experimental part: as §3

“Also recorded” adds a separate entry of the source.

With `Oc1cc(O)c2cc(O)c(-c3ccc(O)c(O)c3)[o+]c2c1` [Cyanidin chloride], the “GAG release under basal conditions” value in [1] was “not evident”. For the same compound, the “IL-1 induced GAG release (chondroprotection)” value in [1] (listed as CC1) is recorded as “blocked IL-1 induced GAG release”; in series [1] (listed as cyanidin), “able to prevent GAG (glycosaminoglycan) release compared to control; also recorded: effective chondroprotective agents limiting the degradation of human cartilage against the catabolic effects of IL-1”; in [1] (listed as cyanidin chloride) it was “chondroprotective; also recorded: blocked”. The “IGF-1 production (media levels)” value is “no restoration of media IFG-1 levels” in series [2] (IL-1 with high dose 50 ug/mL), “no restoration of media IFG-1 levels” in series [2] (IL-1 with low dose 5 ug/mL) and “reduced IGF-1 production from control values” in series [2] (high dose (50 ug/mL) alone). The IGF-1 production result is listed as “Reduced production of IGF-1” in [2]; “no benefit was observed” in series [3] (explants, IL-1 with high dose 50 ug/mL); “restoration of control IGF-1 production” in series [3] (explants, IL-1 with low dose 5 ug/mL). Further, the “IGF-1 production compared to IL-1 alone” value in series [2] is “greater than IL-1 alone when treated with cyanidin alone at high levels and at low levels in combination with IL-1”; in [3], “increased; also recorded: greater than IL-1 alone when treated with cyanidin alone or in combination with IL-1”. Also, the “basal IGF-1 production” value in series [3] (explants, high dose alone) is “did not express basal IGF-1 production”. Further, in series [4] (500 uM), the cell viability entry is recorded as “completely reducing cell viability”. Moreover, the “toxicity relative to the other compounds tested” value in series [4] (concentrations above 100 uM up to 500 uM) is recorded as “most toxic”. In addition, in series [5] (higher glucose conditions (5%) as printed), the “chondroprotective activity, greater than under low glucose” value is roughly 20%. Further, in series [5] (low glucose levels (2.5%) as printed), the chondroprotective activity entry was “some chondroprotective activity”.
Consider `OC[C@H]1O[C@@H](Oc2cc3c(O)cc(O)cc3[o+]c2-c2ccc(O)c(O)c2)[C@H](O)[C@@H](O)[C@@H]1O.[Cl-]` [Kuromanin chloride], for which the “GAG release under basal conditions” value in [1] is listed as “some catabolic effects that may reflect cell toxicity; also recorded: tendency for the high dose of kuromanin to promote GAG release”. The entries for the “IL-1 induced GAG release (chondroprotection)” value in series [1] and in [1] (listed as KuCl) were “able to prevent GAG (glycosaminoglycan) release compared to control; also recorded: effective chondroprotective agents limiting the degradation of human cartilage against the catabolic effects of IL-1; also recorded: blocked” and “blocked IL-1 induced GAG release”, respectively. Moreover, the results for the “IGF-1 production (media levels)” value in [2] (IL-1 with high dose 50 ug/mL), in series [2] (IL-1 with low dose 5 ug/mL) and in series [2] (high dose (50 ug/mL) alone) were “no effect over IL-1”, “restoration of IGF-1 production” and “reduced IGF-1 protein levels in the media to a similar level as to that seen with IL-1”, respectively. Besides, the IGF-1 production entry in [2] is “Reduced production of IGF-1”. Further, the “IGF-1 production compared to IL-1 alone” value in series [2] is “greater than IL-1 alone when treated with kuromanin at high levels and at low levels in combination with 1L-1”; in series [3] it was “increased; also recorded: greater than IL-1 alone when treated with kuromanin alone or in combination with IL-1”. For the same compound, the production of mucopolysaccharides entry is reported as “increased production of mucopolysaccharides; also recorded: increase of mucopolysaccharide” in series [6] (bovine cartilage preincubated with IL-1); “increase of mucopolysaccharide” in [6] (control bovine cartilage explants, no IL-1, listed as kuromanin); “increased production of mucopolysaccharides” in [6] (control bovine cartilage explants, no IL-1, listed as kuromanin chloride). Besides, in series [7], the “matrix synthesis rates (growth factor synergy)” value is “synergistic effect on matrix synthesis rates”. For the same compound, in series [8], the half-life is 1.5 to 2 h. Moreover, the “oxygen radical absorbing capacity compared to Trolox (Vitamin E)” value in series [9] is 3.5 times. Besides, the insulin secretion entry in [10] is listed as “stimulate insulin secretion”.
As to `O=C[C@H](O)[C@@H](O)[C@H](O)[C@H](O)CO` [glucose], in [11] (higher amounts of glucose), the “presence of TGF-β” value is “decreased the presence of TGF-β”. Also, the TGF-β expression result in series [11] (varying amounts of dextrose) is recorded as “does not increase TGF-β expression”. Further, the “concentration providing the greatest proliferation of fibroblasts” value in series [12] came out at 0.5%. In addition, the cell proliferation entry in series [12] (higher concentrations of glucose) is listed as “did not”; in series [12] (lower concentrations of glucose), “increased cell proliferation”.

As usually defined, the half-life is the time needed for the level to fall by half in the phase considered.
